The results in this text go back to PubChem BioAssay (NCI).

Each structure is given as a SMILES string.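 Each compound was tested at five concentrations against cells in 96-well plates for 48 hours. Here, GI50 denotes the concentration required for 50% inhibition of growth. Definition used: TGI = concentration required for complete inhibition of growth.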 A value given as a limit tells only on which side of the number the result lay.

Some test systems named below: UO-31 renal; RPMI-8226 leukemia; OVCAR-4 ovarian; SNB-19 CNS; SN12C renal; SK-OV-3 ovarian; MDA-MB-231 breast; EKVX NSCLC.
Common to all, as to experiment: DTP human tumour cell line panel, 48 h

In general, TGI refers to the concentration giving total growth inhibition. A higher TGI goes with less potent growth arrest. Regarding `CC(=O)CC(=O)CCCC(=O)Nc1ccc(Cl)cc1Cl`, the total growth inhibition concentration (TGI) in the experiment with UO-31 renal, in the experiment on RPMI-8226 leukemia, in the experiment with OVCAR-4 ovarian, in the experiment with SNB-19 CNS, in the experiment with SN12C renal and in the experiment on SK-OV-3 ovarian was more than 100 µM throughout.

One may read the GI50 as the concentration giving 50% growth inhibition. Take `O=C(Nc1cccc(NS(=O)(=O)c2ccc(F)cc2)c1)c1ccc(-c2ccccc2)cc1`: the GI50 in the experiment with MDA-MB-231 breast is 3.61 µM; in the experiment with UO-31 renal, 2.56 µM; in the experiment with RPMI-8226 leukemia, 2.31 µM; in the experiment on OVCAR-4 ovarian, 3.72 µM; in the experiment with SNB-19 CNS it was 3.4 µM; in the experiment on SN12C renal, 2.96 µM. For the same molecule, the GI50 with EKVX NSCLC is 2.98 µM; in the experiment with SK-OV-3 ovarian, 4.78 µM. The TGI is 18 µM in the experiment on MDA-MB-231 breast; 16.9 µM in the experiment with UO-31 renal; 11.4 µM in the experiment with RPMI-8226 leukemia; more than 100 µM with OVCAR-4 ovarian; more than 100 µM with SNB-19 CNS; 11.8 µM with SN12C renal. Besides, the TGI is 65.3 µM in the experiment on EKVX NSCLC and 38.5 µM in the experiment on SK-OV-3 ovarian.

For `O=C1c2cccnc2-c2nc(-c3ccccn3)cc3c2c1nc1ccccc13`, the GI50 in the experiment on MDA-MB-231 breast was 0.185 µM; in the experiment with UO-31 renal it was 0.0539 µM; with RPMI-8226 leukemia it was 0.253 µM; in the experiment on OVCAR-4 ovarian, 0.0699 µM; in the experiment on SNB-19 CNS, 1.13 µM; with SN12C renal it was 0.21 µM. Further, the figures for the GI50 in the experiment on EKVX NSCLC and in the experiment with SK-OV-3 ovarian were 0.62 µM and 0.192 µM, respectively. Also, the TGI in the experiment with MDA-MB-231 breast was 0.5 µM; in the experiment on UO-31 renal, 0.219 µM; in the experiment on RPMI-8226 leukemia, 1.03 µM; in the experiment with OVCAR-4 ovarian, 0.26 µM; in the experiment on SNB-19 CNS, 2.65 µM; with SN12C renal, 1.19 µM. Besides, the figures for the TGI in the experiment on EKVX NSCLC and with SK-OV-3 ovarian were 2.1 µM and 0.581 µM, respectively.

For the molecule `O=C(Nc1ncc([N+](=O)[O-])s1)c1cccc([N+](=O)[O-])c1`, the GI50 is 5.12 µM with MDA-MB-231 breast; 2.55 µM in the experiment with UO-31 renal; 1.43 µM in the experiment with RPMI-8226 leukemia; 3.97 µM in the experiment with OVCAR-4 ovarian; 3.53 µM with SNB-19 CNS; 2.73 µM with SN12C renal. Besides, the GI50 with EKVX NSCLC is 2.8 µM; with SK-OV-3 ovarian it was 3.72 µM. Also, the concentration for total growth inhibition (TGI) was 54.5 µM in the experiment on MDA-MB-231 breast; 9.87 µM in the experiment on UO-31 renal; 5.41 µM in the experiment on RPMI-8226 leukemia; more than 100 µM in the experiment with OVCAR-4 ovarian; more than 100 µM with SNB-19 CNS; more than 53.3 µM in the experiment on SN12C renal. Further, the total growth inhibition concentration (TGI) is more than 100 µM with EKVX NSCLC and 35.7 µM with SK-OV-3 ovarian.

Take `CCOC(=O)c1[nH]c2cccc3c2c1CC(Br)C3=O` (stereo not drawn): the TGI with MDA-MB-231 breast was determined as 33.6 µM; with UO-31 renal, 19.2 µM; in the experiment on RPMI-8226 leukemia it was 26.7 µM; in the experiment with SNB-19 CNS, 30.7 µM; in the experiment with SN12C renal, 30.9 µM; in the experiment with EKVX NSCLC it was 32.2 µM. In the experiment with SK-OV-3 ovarian, this molecule came in with a concentration for total growth inhibition (TGI) of 54.7 µM.

Turning to `COC(=O)c1ccc(-c2nc3cc(F)c(F)cc3nc2C#N)cc1`, the GI50 in the experiment with MDA-MB-231 breast is 1.57 µM; with UO-31 renal, 11.2 µM; in the experiment on OVCAR-4 ovarian, 4.71 µM; in the experiment on SNB-19 CNS, 9.35 µM; in the experiment on SN12C renal, 1.66 µM; in the experiment with EKVX NSCLC, 9.89 µM. Further, the GI50 in the experiment with SK-OV-3 ovarian was 9.77 µM. Further, the TGI came out at 6.87 µM in the experiment on MDA-MB-231 breast; 33.5 µM in the experiment with UO-31 renal; 32.3 µM with OVCAR-4 ovarian; 17 µM in the experiment on SNB-19 CNS; 4.9 µM with SN12C renal; 19.5 µM with EKVX NSCLC. This molecule yielded a concentration for total growth inhibition (TGI) with SK-OV-3 ovarian of 17.2 µM.

As for `COc1cccc2c(Nc3ccc(C(=O)NCCNCCO)cc3)cc(-c3ccccc3)nc12`, the GI50 with MDA-MB-231 breast was 25.5 µM; in the experiment on UO-31 renal, more than 100 µM; with RPMI-8226 leukemia, 24.5 µM; in the experiment on OVCAR-4 ovarian, 13.5 µM; in the experiment with SN12C renal it was 34.3 µM; in the experiment with EKVX NSCLC it was more than 100 µM. Moreover, the GI50 in the experiment on SK-OV-3 ovarian is 86.7 µM. Also, the TGI with MDA-MB-231 breast was 73.5 µM; in the experiment with UO-31 renal, more than 100 µM; in the experiment on RPMI-8226 leukemia, 60.3 µM; in the experiment on OVCAR-4 ovarian, 43.7 µM; in the experiment on SN12C renal, more than 100 µM; in the experiment on EKVX NSCLC, more than 100 µM. The TGI in the experiment with SK-OV-3 ovarian was more than 100 µM.

`NCCCn1c2c(c3ccccc3c1=O)C(=O)c1cc3c(cc1-2)OCO3`: the GI50 was 0.72 µM with MDA-MB-231 breast; 0.265 µM in the experiment with UO-31 renal; less than 0.0214 µM with RPMI-8226 leukemia; 0.159 µM in the experiment on SNB-19 CNS; 0.276 µM with SN12C renal; 1.23 µM in the experiment with EKVX NSCLC. The GI50 with SK-OV-3 ovarian was 1.93 µM. Besides, the TGI was found to be 4.54 µM in the experiment with MDA-MB-231 breast; 1.99 µM with UO-31 renal; 0.258 µM with RPMI-8226 leukemia; 1.62 µM in the experiment on SNB-19 CNS; 1.05 µM in the experiment with SN12C renal; 4.79 µM with EKVX NSCLC. Moreover, the TGI with SK-OV-3 ovarian was determined as 13 µM.

`N#Cc1c2ccccc2c2nnc3cc(C(F)(F)F)ccc3n12`: the GI50 is 70.3 µM in the experiment with UO-31 renal; 55.1 µM in the experiment on RPMI-8226 leukemia; 55.5 µM with OVCAR-4 ovarian; more than 100 µM with SNB-19 CNS; more than 100 µM in the experiment with EKVX NSCLC; more than 100 µM with SK-OV-3 ovarian. The TGI in the experiment with UO-31 renal, in the experiment on RPMI-8226 leukemia, in the experiment on OVCAR-4 ovarian, in the experiment with SNB-19 CNS, in the experiment with EKVX NSCLC and in the experiment on SK-OV-3 ovarian was more than 100 µM each time.

In the case of `CC(C)SC1SCC2C(=O)N(C)C3(CC3C)C(=O)OCC(NC(=O)c3nc4ccccc4cc3O)C(=O)NC(C)C(=O)N(C)C1C(=O)N(C)C1(CC1C)C(=O)OCC(NC(=O)c1nc3ccccc3cc1O)C(=O)NC(C)C(=O)N2C` (stereo not drawn), the TGI is more than 100 µM with MDA-MB-231 breast; less than 0.0001 µM in the experiment with UO-31 renal; less than 0.0001 µM in the experiment on RPMI-8226 leukemia; less than 0.0001 µM with OVCAR-4 ovarian; 0.0759 µM in the experiment with EKVX NSCLC; 4.92 µM with SK-OV-3 ovarian.

Take `O=C(O)C(Cc1ccccc1-c1ccccc1)C(=O)O`: the TGI in the experiment with MDA-MB-231 breast, with UO-31 renal, in the experiment on RPMI-8226 leukemia, in the experiment with OVCAR-4 ovarian, with SNB-19 CNS and with SN12C renal was more than 100 µM throughout. Moreover, the TGI with EKVX NSCLC is more than 100 µM.
